Experiments:
[1] = test system: bile acid β-glucosidase activity of GBA2; test: Bile acid β-glucosidase activity, liver microsomal enzyme from wild type mouse; type: biochemical
[2] = biological target: T1, bile acid β-glucosidase activity of GBA2 (Homo sapiens, UniProt Q9HCG7); test: Bile acid β-glucosidase activity, human enzyme expressed in COS-7-cells; type: biochemical; conditions: read-out: β-Glucosidase activity % of control
T1 construct: expressed in transfected cells; host or cells: COS-7
T1 sequence (Q9HCG7 1-927): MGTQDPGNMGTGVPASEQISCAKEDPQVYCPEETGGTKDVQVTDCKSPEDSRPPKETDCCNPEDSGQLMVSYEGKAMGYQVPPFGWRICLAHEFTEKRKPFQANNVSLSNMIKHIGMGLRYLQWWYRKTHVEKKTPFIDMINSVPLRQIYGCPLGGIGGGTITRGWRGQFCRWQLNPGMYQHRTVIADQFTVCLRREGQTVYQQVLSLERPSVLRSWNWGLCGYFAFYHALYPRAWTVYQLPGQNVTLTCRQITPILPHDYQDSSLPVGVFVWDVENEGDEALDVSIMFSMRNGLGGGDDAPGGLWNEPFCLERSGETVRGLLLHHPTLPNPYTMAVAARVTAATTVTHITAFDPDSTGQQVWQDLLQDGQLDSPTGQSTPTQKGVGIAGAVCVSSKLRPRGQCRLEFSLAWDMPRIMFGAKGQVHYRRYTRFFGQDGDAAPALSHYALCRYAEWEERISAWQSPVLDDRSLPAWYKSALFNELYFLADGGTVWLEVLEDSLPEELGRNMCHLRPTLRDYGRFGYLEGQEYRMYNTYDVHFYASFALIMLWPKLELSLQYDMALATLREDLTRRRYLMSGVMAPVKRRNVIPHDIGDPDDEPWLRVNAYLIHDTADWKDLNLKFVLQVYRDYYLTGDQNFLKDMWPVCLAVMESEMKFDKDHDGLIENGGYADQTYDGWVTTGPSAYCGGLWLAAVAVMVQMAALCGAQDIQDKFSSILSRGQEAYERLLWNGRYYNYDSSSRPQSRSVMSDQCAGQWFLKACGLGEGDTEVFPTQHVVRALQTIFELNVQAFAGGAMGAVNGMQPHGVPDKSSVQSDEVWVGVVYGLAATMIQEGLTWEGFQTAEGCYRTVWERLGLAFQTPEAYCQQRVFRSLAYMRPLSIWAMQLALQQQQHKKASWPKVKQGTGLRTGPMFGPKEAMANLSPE

[3] = biological target: T2, bile acid glucosyltransferase activity of GBA2 (Homo sapiens, UniProt Q9HCG7); test: Bile acid glucosyltransferase activity, human enzyme expressed in COS-7-cells; type: biochemical; conditions: read-out: Transferase activity % of control
T2 construct: expressed in transfected cells; host or cells: COS-7
T2 sequence (Q9HCG7 1-927): T1 sequence (Q9HCG7 1-927)

[4] = biological target: T3, bile acid β-glucosidase activity of GBA2 (Mus musculus, UniProt Q69ZF3); test: Bile acid β-glucosidase activity, murine enzyme expressed in COS-7-cells; type: biochemical; conditions: read-out: β-Glucosidase activity % of control
T3 construct: expressed in transfected cells; host or cells: COS-7
T3 sequence (Q69ZF3 1-918): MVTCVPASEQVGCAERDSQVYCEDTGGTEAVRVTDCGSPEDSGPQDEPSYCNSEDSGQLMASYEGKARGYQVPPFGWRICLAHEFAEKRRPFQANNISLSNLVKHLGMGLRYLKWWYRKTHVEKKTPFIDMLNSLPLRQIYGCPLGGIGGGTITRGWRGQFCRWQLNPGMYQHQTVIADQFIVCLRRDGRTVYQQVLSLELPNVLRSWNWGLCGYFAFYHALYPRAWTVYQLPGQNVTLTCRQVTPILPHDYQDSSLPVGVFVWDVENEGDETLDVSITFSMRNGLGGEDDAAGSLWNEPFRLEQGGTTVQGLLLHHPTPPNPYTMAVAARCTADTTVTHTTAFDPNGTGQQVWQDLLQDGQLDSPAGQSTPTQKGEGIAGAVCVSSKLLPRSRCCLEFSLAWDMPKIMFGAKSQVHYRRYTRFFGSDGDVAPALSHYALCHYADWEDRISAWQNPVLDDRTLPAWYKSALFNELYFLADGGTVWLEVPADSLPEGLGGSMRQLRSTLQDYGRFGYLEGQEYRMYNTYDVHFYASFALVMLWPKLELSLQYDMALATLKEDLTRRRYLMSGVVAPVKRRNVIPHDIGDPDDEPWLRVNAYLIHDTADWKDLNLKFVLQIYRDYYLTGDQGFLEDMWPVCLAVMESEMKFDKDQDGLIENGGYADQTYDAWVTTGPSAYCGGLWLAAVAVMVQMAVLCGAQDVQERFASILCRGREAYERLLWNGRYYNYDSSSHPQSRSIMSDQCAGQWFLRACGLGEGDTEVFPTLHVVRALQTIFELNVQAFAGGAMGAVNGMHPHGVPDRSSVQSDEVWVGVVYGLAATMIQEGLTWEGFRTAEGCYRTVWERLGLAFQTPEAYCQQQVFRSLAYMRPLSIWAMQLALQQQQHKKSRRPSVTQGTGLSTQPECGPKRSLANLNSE

[5] = test system: liver microsomal β-glucosidase activity from GBA2 (-/-) mice; test: Liver microsomal β-glucosidase activity from GBA2 (-/-) mice; type: biochemical; conditions: liver microsomes from GBA2 (-/-) mice
[6] = biological target: T4, bile acid glucosyltransferase activity of GBA2 (Mus musculus, UniProt Q69ZF3); test: Bile acid glucosyltransferase activity, murine enzyme expressed in COS-7-cells; type: biochemical; parameters: expressed in transfected cells; host or cells: COS-7; conditions: read-out: Transferase activity % of control
T4 sequence (Q69ZF3 1-918): T3 sequence (Q69ZF3 1-918)

[7] = biological target: T4, bile acid glucosyltransferase activity of GBA2; test: Bile acid glucosyltransferase activity, liver microsomal enzyme from wild type mouse; type: biochemical; parameters: from tissue; host or cells: mouse liver microsomes (wild type); conditions: read-out: Transferase activity % of control
[8] = test system: mice; conditions: administration to mice; cited from earlier work
[9] = test system: rodents; conditions: administered to rodents; cited from earlier work
[10] = test system: GBA2; test: Summary statement on the screening for GBA2 antagonists; type: biochemical; conditions: summary of Example 22

Structure (SMILES): O[C@H]1[C@H](O)[C@@H](O)[C@@H]2O[C@@H]2[C@@H]1O (racemic) [Conduritol B epoxide, reference compound]
- β-Glucosidase activity % of control ([1]; 50 µM): 46.9%
- remaining activity at 1000 µM ([2]; 1000 µM, human enzyme expressed in COS-7-cells): 55.7%
- remaining activity at 2000 µM ([3]; 2000 µM): 64.6%
- remaining activity at 1000 µM ([4]; 1000 µM): 44.9%
- β-Glucosidase activity % of control ([5]; 20 µM): 58.9%
- remaining activity at 2000 µM ([6]; 2000 µM): 48.6%
- remaining activity at 2000 µM ([7]; 2000 µM): 60%

Structure (SMILES): OC[C@H]1NC[C@H](O)[C@@H](O)[C@@H]1O [1-Deoxynojirimycin]
- male infertility and globozoospermia [8]: causes male infertility and globozoospermia

Structure (SMILES): CCCCN1C[C@H](O)[C@@H](O)[C@H](O)[C@H]1CO [Butyl-dNM, N-butyldeoxynojirimycin]
- globozoospermia [9]: causes globozoospermia

Structure (SMILES): CCCCCCCCCCCCN1C[C@H](O)[C@@H](O)[C@H](O)[C@H]1CO [Dodecyl-dNM, dodecyldeoxynojirimycin]
- β-Glucosidase activity % of control ([1]; 0.001 µM): 51.9%
- remaining activity at 0.0002 µM [2]: 49.3%
- remaining activity at 0.002 µM ([3]; 0.002 µM): 50.7%
- remaining activity at 0.0001 µM ([4]; 0.0001 µM): 59.5%
- β-Glucosidase activity % of control ([5]; 0.2 µM): 57.8%
- inhibitory effect on β-glucosidase and transferase activity (especially on GBA2) [10]: considerable inhibitory effect
- remaining activity at 0.001 µM ([6]; 0.001 µM): 47.3%
- remaining activity at 0.0006 µM ([7]; 0.0006 µM): 49.4%

Source: patent EP2077855B1, “THERAPEUTIC USE OF GBA2” (Yildiz, Dr. med., Yildiz, priority 2006, dated 2008)
